molecular target: Human LDHA (Homo sapiens (Human), UniProt P00338); test: human LDHA primary biochemical assay (resazurin/diaphorase coupled, fluorescence); conditions: LDHA inhibitory activity, activity level based on IC50 (Table 7)
Excerpt: Test compounds were placed in a Greiner Bio-One (Monroe, N.C.) 1536-well black solid bottom assay plate. 200 millimolar (mM) Tris HCl, pH 7.4, 100 micromolar […] EDTA and 0.01% TWEEN-20™, final concentration, was used as the assay buffer. The LDHA reagent was 2 nanomolar (nM) Human LDHA (Meridian Life Science, Inc., Memphis, Tenn.), final concentration, in assay buffer.

`Cc1ccc(-c2cc(-c3nn(-c4nc(C(=O)O)cs4)cc3Cc3ccc(S(N)(=O)=O)cc3)ccc2F)cc1C` [Compound 516, 2-(3-(6-fluoro-3′,4′-dimethyl-[1,1′-biphenyl]-3-yl)-4-(4-sulfamoylbenzyl)-1H-pyrazol-1-yl)thiazole-4-carboxylic acid] and `Cc1cc(-c2cc(-c3nn(-c4nc(C(=O)O)cs4)cc3Cc3ccc(S(N)(=O)=O)cc3)ccc2C)ccc1F` [Compound 493, 2-(3-(4′-fluoro-3′,6-dimethyl-[1,1′-biphenyl]-3-yl)-4-(4-sulfamoylbenzyl)-1H-pyrazol-1-yl)thiazole-4-carboxylic acid] fall in the same range of IC50: 0.1 to 1 µM for the first, 0.1 to 1 µM for the second.

`Cc1ccc(-c2nn(-c3nc(C(=O)O)cs3)c(C3CC3)c2Cc2ccc(S(N)(=O)=O)cc2)cc1-c1cccnc1` [Compound 499, 2-(5-cyclopropyl-3-(4-methyl-3-(pyridin-3-yl)phenyl)-4-(4-sulfamoylbenzyl)-1H-pyrazol-1-yl)thiazole-4-carboxylic acid] and `COc1cccc(-c2cccc(-c3nn(-c4nc(C(=O)O)cs4)c(C4CC4)c3Cc3ccc(S(N)(=O)=O)c(F)c3)c2)c1` [Compound 353] cannot be ordered by IC50: < 0.1 µM for the first, < 0.1 µM for the second.

`C=C(C)c1cc(-c2nn(-c3nc(C(=O)O)cs3)c(CC3CC3)c2Cc2ccc(S(N)(=O)=O)c(F)c2)ccc1F` [Compound 534, 2-(5-(cyclopropylmethyl)-3-(4-fluoro-3-(prop-1-en-2-yl)phenyl)-4-(3-fluoro-4-sulfamoylbenzyl)-1H-pyrazol-1-yl)thiazole-4-carboxylic acid] and `NS(=O)(=O)c1ccc(Cc2c(-c3cccc(N4CCC(C(F)(F)F)CC4)c3)nn(-c3nc(C(=O)O)cs3)c2CC2CC2)cc1F` [Compound 392] cannot be ordered by IC50: < 0.1 µM for the first, < 0.1 µM for the second.

Compared with `N[S+](=O)([O-])c1ccc(Cc2c(CC3CC3)nn(-c3nc(C(=O)O)cs3)c2-c2cccc(OCc3ccccc3)c2)cc1` [Compound 342], `NS(=O)(=O)c1ccc(Cc2cn(-c3nc(C(=O)O)cs3)nc2-c2ccc(F)c(-c3ccc(F)c(F)c3)c2)cc1` [Compound 517, 2-(4-(4-sulfamoylbenzyl)-3-(3′,4′,6-trifluoro-[1,1′-biphenyl]-3-yl)-1H-pyrazol-1-yl)thiazole-4-carboxylic acid] is lower in IC50: 1 to 57 µM for the first, 0.1 to 1 µM for the second.

same assay, conditions: LDHA inhibitory activity, assay of Example 1; activity level classes

`Nc1c(Cc2ccc(S(N)(=O)=O)cc2)c(-c2ccccc2)nn1-c1nc(CO)cs1` [Compound 131, 4-((5-amino-1-(4-(hydroxymethyl)thiazol-2-yl)-3-phenyl-1H-pyrazol-4-yl)methyl)benzenesulfonamide] and `CCOC(=O)c1csc(-n2nc(-c3cccc(-c4ccccc4)c3)c(Cc3ccc(S(N)(=O)=O)cc3)c2C2CC2)n1` [Compound 181, ethyl 2-(3-([1,1′-biphenyl]-3-yl)-5-cyclopropyl-4-(4-sulfamoylbenzyl)-1H-pyrazol-1-yl)thiazole-4-carboxylate] cannot be ordered by IC50: > 57 µM for the first, > 57 µM for the second.

`CCOC(=O)c1csc(-n2nc(-c3ccccc3)c(Oc3ccc(S(N)(=O)=O)cc3)c2C2CCCC2)n1` [Compound 169, ethyl 2-(5-cyclopentyl-3-phenyl-4-(4-sulfamoylphenoxy)-1H-pyrazol-1-yl)thiazole-4-carboxylate] and `CCOC(=O)c1csc(-n2nc(-c3ccccc3)c(Oc3ccc([S+](N)(=O)[O-])cc3)c2C2CCCCC2)n1` [Compound 274] cannot be ordered by IC50: > 57 µM for the first, > 57 µM for the second.

`O=C(O)c1csc(-n2nc(-c3ccc(F)c(F)c3)c(Cc3ccccc3)c2O)n1` [Compound 113, 2-(4-benzyl-3-(3,4-difluorophenyl)-5-hydroxy-1H-pyrazol-1-yl)thiazole-4-carboxylic acid] and `CC(C)(C)OC(=O)c1csc(-n2nc(-c3ccc(F)c(F)c3)c(-c3ccccc3)c2O)n1` [Compound 118, tert-butyl 2-(3-(3,4-difluorophenyl)-5-hydroxy-4-phenyl-1H-pyrazol-1-yl)thiazole-4-carboxylate] cannot be ordered by IC50: > 57 µM for the first, > 57 µM for the second.

First: NS(=O)(=O)c1ccc(Cc2cn(-c3csc4c(=O)[nH]cnc34)nc2-c2ccccc2)cc1 [Compound 210, 4-((1-(4-oxo-3,4-dihydrothieno[3,2-d]pyrimidin-7-yl)-3-phenyl-1H-pyrazol-4-yl)methyl)benzenesulfonamide]
Second: CCOC(=O)c1csc(-n2nc(-c3cccc(-c4ccccc4)c3)c(Cc3ccc(S(N)(=O)=O)cc3)c2CC2CC2)n1 [Compound 279]
The IC50 of the first is higher: > 57 µM for the first, 1 to 57 µM for the second.

First: O=C(O)c1csc(-n2cc(-c3cccc(-c4ccccc4)c3)c3cccnc32)n1 [Compound 29, 2-(3-([1,1′-biphenyl]-3-yl)-1H-pyrrolo[2,3-b]pyridin-1-yl)thiazole-4-carboxylic acid]
Second: NS(=O)(=O)c1ccc(Cc2c(-c3cccc(-c4ccccc4)c3)nn(-c3nc(C(=O)O)cs3)c2C2(C(F)(F)F)CC2)cc1F [Compound 302]
The IC50 of the first is higher: > 57 µM for the first, 1 to 57 µM for the second. The second is the more potent here.

`CS(=O)(=O)Nc1cc(-c2cc(O)n(-c3nc(C(=O)O)cs3)n2)ccc1F` [Compound 103, 2-(3-(4-fluoro-3-(methylsulfonamido)phenyl)-5-hydroxy-1H-pyrazol-1-yl)thiazole-4-carboxylic acid] and `O=C(O)c1csc(-n2nc(-c3ccc(F)c(F)c3)cc2CO)n1` [Compound 64, 2-(3-(3,4-difluorophenyl)-5-(hydroxymethyl)-1H-pyrazol-1-yl)thiazole-4-carboxylic acid] cannot be ordered by IC50: > 57 µM for the first, > 57 µM for the second.

Compared with `NS(=O)(=O)c1ccc(Cc2c(-c3cccc4cc(F)ccc34)nn(-c3nc(C(=O)O)cs3)c2O)cc1` [Compound 89, 2-(3-(6-fluoronaphthalen-1-yl)-5-hydroxy-4-(4-sulfamoylbenzyl)-1H-pyrazol-1-yl)thiazole-4-carboxylic acid], `NS(=O)(=O)c1ccc(Oc2c(-c3ccccc3)nn(-c3nc(C(=O)O)cs3)c2C2CC2)cc1` [Compound 166, 2-(5-cyclopropyl-3-phenyl-4-(4-sulfamoylphenoxy)-1H-pyrazol-1-yl)thiazole-4-carboxylic acid] is lower in IC50: > 57 µM for the first, < 0.1 µM for the second. The second is the more potent here.

First: NS(=O)(=O)c1ccc(Oc2c(C3CCCC3)nn(-c3nc(C(=O)O)cs3)c2-c2ccccc2)cc1 [Compound 174, 2-(3-cyclopentyl-5-phenyl-4-(4-sulfamoylphenoxy)-1H-pyrazol-1-yl)thiazole-4-carboxylic acid]
Second: CC#Cc1cccc(-c2nn(-c3nc(C(=O)O)cs3)c(CC3CC3)c2Cc2ccc(S(N)(=O)=O)c(F)c2)c1 [Compound 270]
The IC50 of the first is higher: 1 to 57 µM for the first, < 0.1 µM for the second. The second is the more potent here.

For `O=C(OCCN1CCOCC1)c1csc(-n2nc(-c3ccc(F)c(F)c3)cc2O)n1` [Compound 106, 2-morpholinoethyl 2-(3-(3,4-difluorophenyl)-5-hydroxy-1H-pyrazol-1-yl)thiazole-4-carboxylate], the IC50 was > 57 µM.

same assay, conditions: read-out: Inhibitory activity IC50

`Cc1ccc(-c2cc(-c3c(Cc4ccc(S(N)(=O)=O)cc4F)c(CC4CC4)nn3-c3nc(C(=O)O)cs3)ccc2F)s1` [Compound 226, 2-(3-(cyclopropylmethyl)-5-(4-fluoro-3-(5-methylthiophen-2-yl)phenyl)-4-(2-fluoro-4-sulfamoylbenzyl)-1H-pyrazol-1-yl)thiazole-4-carboxylic acid] and `Cn1cc(-c2cc(-c3c(Cc4ccc(S(N)(=O)=O)c(F)c4)c(CC4CC4)nn3-c3nc(C(=O)O)cs3)ccc2F)cn1` [Compound 218, 2-(3-(cyclopropylmethyl)-5-(4-fluoro-3-(1-methyl-1H-pyrazol-4-yl)phenyl)-4-(3-fluoro-4-sulfamoylbenzyl)-1H-pyrazol-1-yl)thiazole-4-carboxylic acid] cannot be ordered by IC50: > 57 µM for the first, > 57 µM for the second.

`NS(=O)(=O)c1ccc(Cc2c(-c3ccccc3)nn(-c3nc(CO)cs3)c2C(F)(F)F)cc1` [Compound 88, 4-((1-(4-(hydroxymethyl)thiazol-2-yl)-3-phenyl-5-(trifluoromethyl)-1H-pyrazol-4-yl)methyl)benzenesulfonamide] and `CC(C)c1nn(-c2nc(C(=O)O)cs2)c(-c2ccccc2)c1Cc1ccc(S(N)(=O)=O)cc1` [Compound 158, 2-(3-isopropyl-5-phenyl-4-(4-sulfamoylbenzyl)-1H-pyrazol-1-yl)thiazole-4-carboxylic acid] fall in the same range of IC50: 1 to 57 µM for the first, 1 to 57 µM for the second.

First: NC(=O)c1csc(-n2cc(Cc3ccc(S(N)(=O)=O)cc3)c(-c3ccccc3)n2)n1 [Compound 79, 2-(3-phenyl-4-(4-sulfamoylbenzyl)-1H-pyrazol-1-yl)thiazole-4-carboxamide]
Second: NS(=O)(=O)c1ccc(Cc2cn(-c3nc(C(=O)O)cs3)c3ccccc23)cc1 [Compound 196, 2-(3-(4-sulfamoylbenzyl)-1H-indol-1-yl)thiazole-4-carboxylic acid]
The IC50 of the first is higher: 1 to 57 µM for the first, 0.1 to 1 µM for the second. The second is the more potent here.

`N[S+](=O)([O-])c1ccc(Cc2c(CC3CC3)nn(-c3nc(C(=O)O)cs3)c2-c2ccc(F)c(-c3ccc(F)cc3)c2)cc1` [Compound 292] and `Cc1ccc(-c2cccc(-c3c(Cc4ccc([S+](N)(=O)[O-])c(F)c4)c(CC4CC4)nn3-c3nc(C(=O)O)cs3)c2)cc1` [Compound 286] fall in the same range of IC50: 1 to 57 µM for the first, 1 to 57 µM for the second.

First: CCOC(=O)c1csc(-n2nc(-c3cccc(-c4ccccc4)c3)c(Cc3ccc(S(N)(=O)=O)cc3)c2O)n1 [Compound 73, ethyl 2-(3-([1,1′-biphenyl]-3-yl)-5-hydroxy-4-(4-sulfamoylbenzyl)-1H-pyrazol-1-yl)thiazole-4-carboxylate]
Second: O=C(O)c1ccc(Cc2c(-c3cccc(-c4ccccc4)c3)nn(-c3nc(C(=O)O)cs3)c2O)cc1 [Compound 68, 2-(3-([1,1′-biphenyl]-3-yl)-4-(4-carboxybenzyl)-5-hydroxy-1H-pyrazol-1-yl)thiazole-4-carboxylic acid]
The IC50 of the first is lower: 1 to 57 µM for the first, > 57 µM for the second.

First: N[S+](=O)([O-])c1ccc(Cc2c(CC3CC3)nn(-c3nc(C(=O)O)cs3)c2-c2cccc(-c3ccccc3)c2)c(F)c1 [Compound 289]
Second: O=C(O)c1csc(-n2nc(-c3ccccc3)cc2O)n1 [Compound 91, 2-(5-hydroxy-3-phenyl-1H-pyrazol-1-yl)thiazole-4-carboxylic acid]
The IC50 of the first is lower: 1 to 57 µM for the first, > 57 µM for the second.

For `NS(=O)(=O)c1ccc(Cc2cn(-c3nc(C(=O)O)cs3)c3ncccc23)cc1` [Compound 26, 2-(3-(4-sulfamoylbenzyl)-1H-pyrrolo[2,3-b]pyridin-1-yl)thiazole-4-carboxylic acid], the IC50 was 0.1 to 1 µM.

Source: patent US10961200B2, “Small molecule inhibitors of lactate dehydrogenase and methods of use thereof” (THE UNITED STATES OF AMERICA, AS REPRESENTED BY THE …, priority 2014, dated 2021)
